Earlier results as cited in paper PMC3160472 (Nature protocols, 2011).
Where two headings read alike, the source gives them in different places.

Assays:
[1] = molecular target: IBC (IP3-binding core of IP3 receptor, residues 224-604 of IP3R1); details: read-out: KD, IBC, 3H-IP3; Ca2+-free CLM, 4 °C, equilibrium competition binding with 3H-IP3, mean ± S.E.M., n = 3
[2] = molecular target: IBC (IP3-binding core of IP3 receptor, residues 224-604 of IP3R1); details: read-out: KD, IBC, FP, Ca2+-free CLM, 4 °C, mean ± S.E.M., n = 3
[3] = molecular target: NT (N-terminal domain of IP3 receptor, residues 1-604 of IP3R1); details: for Kd: read-out: KD, NT, 3H-IP3, Ca2+-free CLM, 4 °C, equilibrium competition binding with 3H-IP3, mean ± S.E.M., n = 3
[4] = molecular target: NT (N-terminal domain of IP3 receptor, residues 1-604 of IP3R1); details: read-out: KD, NT, FP, Ca2+-free CLM, 4 °C, mean ± S.E.M., n = 3
[5] = molecular target: NT (N-terminal domain of IP3 receptor, residues 1-604 of IP3R1); details: read-out: KD, saturation radioligand binding; 'purified' NT, 3H-IP3, in TEM (pH 8.3)

| Kd [1] | Kd [2] | Kd [3] | Kd [4] | KD for the NT in TEM relative to Ca2+-free CLM ([3]; TEM (pH 8.3) versus Ca2+-free CLM (pH 7.0), printed as higher in TEM) | Kd [5] | Compound |
| --- | --- | --- | --- | --- | --- | --- |
| 0.7 ± 0.1 nM | 0.9 ± 0.1 nM | 6.2 ± 1.6 nM | 8.6 ± 0.2 nM |  |  | Nc1ncnc2c1ncn2[C@@H]1O[C@H](CO)[C@@H](O[C@H]2O[C@H](CO)[C@@H](OP(=O)(O)O)[C@H](OP(=O)(O)O)[C@H]2O)[C@H]1OP(=O)(O)O [Adenophostin A] |
| 8.7 ± 1.8 nM | 9.2 ± 0.8 nM | 65 ± 8 nM | 95 ± 7 nM | ~ 40 fold | 2.2 ± 0.5 nM | O=P([O-])([O-])O[C@@H]1[C@H](O)[C@H](O)[C@@H](OP(=O)([O-])[O-])[C@H](OP(=O)([O-])[O-])[C@H]1O.[K+].[K+].[K+].[K+].[K+].[K+] [IP3, D-myo-inositol-1,4,5-trisphosphate, hexapotassium salt] |
| 2 ± 0.2 nM | 3 ± 0.1 nM | 11.8 ± 0.2 nM | 12.5 ± 0.6 nM |  |  | D-2-O-(2-(3-(5-fluoresceinyl)thioureido)ethyl)-myo-inositol 1,4,5-trisphosphate [FITC-IP3] |
